Where two headings read alike, the source gives them in different places.
Assays:
Glucocorticoid Receptor = target: T1, Glucocorticoid Receptor (Homo sapiens, UniProt P04150); experiment: GR reporter assay, agonist mode; assay type: cell-based; settings: at very high concentrations
T1 construct: endogenous in cells; host or cells: human kidney epithelial cells
T1 sequence (P04150 1-777): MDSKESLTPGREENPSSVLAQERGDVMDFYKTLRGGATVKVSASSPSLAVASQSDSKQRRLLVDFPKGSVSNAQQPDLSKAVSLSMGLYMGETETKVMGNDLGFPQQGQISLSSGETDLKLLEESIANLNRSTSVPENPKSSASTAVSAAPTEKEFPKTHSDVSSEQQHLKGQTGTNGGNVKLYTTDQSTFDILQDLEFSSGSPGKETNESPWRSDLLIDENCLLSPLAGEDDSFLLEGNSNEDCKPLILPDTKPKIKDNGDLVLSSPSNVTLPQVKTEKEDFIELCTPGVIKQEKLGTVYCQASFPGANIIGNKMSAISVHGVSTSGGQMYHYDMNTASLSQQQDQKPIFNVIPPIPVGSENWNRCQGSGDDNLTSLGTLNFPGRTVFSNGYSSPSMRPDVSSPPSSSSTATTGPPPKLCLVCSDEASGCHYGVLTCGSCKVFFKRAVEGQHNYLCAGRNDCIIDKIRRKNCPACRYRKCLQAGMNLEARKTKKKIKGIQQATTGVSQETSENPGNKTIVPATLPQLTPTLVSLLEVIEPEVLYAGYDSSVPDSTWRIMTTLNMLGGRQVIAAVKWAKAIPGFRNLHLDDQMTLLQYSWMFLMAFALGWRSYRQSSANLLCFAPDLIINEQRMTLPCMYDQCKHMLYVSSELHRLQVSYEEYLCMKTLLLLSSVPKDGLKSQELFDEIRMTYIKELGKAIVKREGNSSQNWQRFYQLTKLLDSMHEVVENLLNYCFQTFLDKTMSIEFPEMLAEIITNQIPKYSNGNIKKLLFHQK
Method: The androgen and glucocorticoid hormones elicit divergent and often opposing effects in cells, tissues, and animals. […] CB-03-10 GR antagonist and agonist activities were tested in an in vitro assay. Briefly, human kidney epithelial cells were transfected with DNA construct containing GR binding sites linked to luminescent based reporter molecule. After 24 hours, cells were treated under antagonist or agonist modes. After an additional 24 hours, luminescence which is proportional to GR agonist transcriptional activity was quantitated.
Agonist Assay—was based on induction of luminescence by CB-03-10
The agonist activity of CB-03-10 was compared to a RU486 which is known to not have agonist activity.

[1] = test system: PSA secretion from LNCaP prostate cancer cells; experiment: PSA secretion from LNCaP cells (Elisa); assay type: cell-based; settings: Homo sapiens, 48 hours, read-out: IC50, inhibition of PSA secretion
Method: Prostate-specific antigen, or PSA, is a protein produced by cells of the prostate gland. The PSA test measures the level of PSA in a person's blood. The blood level of PSA is often elevated in men with prostate cancer and it used as surrogate marker to test prostate cancer progression in human population. After the observation that CB-03-10 was able to inhibit in vivo the growth of prostate cancer, the capability of the compound to inhibit in vitro PSA secretion from cancer cells was determined. […] After 48 hours incubation with test compounds, supernatants were harvested and tested with an Elisa assay for PSA and same cells were lysed for cell viability assessment.

[2] = In vitro metabolism in human plasma; assay type: in vitro ADME; settings: 37° C.; FIG. 13
Method: (§1) To obtain some insights on the metabolism of CB-03-10 in human and rat plasma, a specific assay was designed. Briefly the compound was incubated at different time in human and rat plasma at 37° C. After incubation the samples were tested for presence of the intact compound by liquid chromatography.

[3] = In vivo pharmacokinetics in mouse plasma; settings: mice; iv 20 mg/kg, SC 40 mg/kg, PO 40 mg/kg
Method: The pharmacokinetic of CB-03-10 was evaluated in plasma of mice after intravenous (IV), subcutaneous (SC) and oral administration (PO).
Mice (3 per group) were administered with the following doses, blood was collected at the indicated times. Plasma samples were analyzed by HPLC-MS/MS.

[4] = In vitro metabolism in rat plasma; assay type: in vitro ADME; settings: 37° C.; FIG. 13
Method: as §1

LNCaP xenograft tumor = experiment: LNCaP human prostate cancer xenograft in nude mice, oral dosing; assay type: in vivo, mouse
Method: 3×10^6 LNCaP cells suspended in matrigel were subcutaneously injected (on the right flank) into 6 week old male athymic nude mice. Tumors were measured as described above. Treatment with CB-03-10 and controls compounds was initiated after the tumor had reached 50 mm^3. […] Oral dosing was daily (100 mg/Kg in 200 μL/mouse) for 28 consecutive days. Results were plotted as average change in tumor volume relative to the start of treatment.

[5] = test system: 22Rv1 prostate cancer cells; experiment: In vitro proliferation, 22Rv1; assay type: cell-based; settings: Homo sapiens, Table III, read-out: in vitro proliferation IC50 (μ/M)
Method: Each compounds was titrated from 3 uM to 200 uM.

wild type AR (AR-LBD) = target: T2, wild type AR (AR-LBD) (Rattus norvegicus, UniProt P15207); experiment: AR competition binding assay (Polar Screen, fluorescence polarization); settings: displacement of Fluormone AL Green from AR-LBD; read-out: affinity for AR receptor (IC50 molar)
T2 construct: purchased life Technologies
T2 sequence (P15207 651-882 limits assumed): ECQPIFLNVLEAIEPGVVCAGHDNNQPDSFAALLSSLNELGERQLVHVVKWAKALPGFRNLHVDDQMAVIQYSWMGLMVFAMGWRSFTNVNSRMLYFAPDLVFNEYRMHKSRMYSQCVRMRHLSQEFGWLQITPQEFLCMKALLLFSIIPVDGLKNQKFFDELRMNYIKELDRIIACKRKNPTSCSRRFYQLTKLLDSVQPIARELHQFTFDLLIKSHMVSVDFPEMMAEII
Method: Briefly, the AR was added to a fluorescent androgen ligand (Fluormone™ AL Green) to from the complex AR-LBD. Competitors displaced the fluorescent Fluormone™ AL Green ligand from the AR-LBD causing the fluorescent ligand to tumble rapidly during its fluorescence lifetime, resulting in a low polarization value. Non competitors will not displace the fluorescent ligand from the complex, so the polarization value remains high. The shift in polarization value in the presence of test compounds is used to determine relative affinity of test compounds for AR-LBD.

[6] = test system: Caspase 8, 9 and 3/7 in LNCaP cells; experiment: Caspase activity in LNCaP cells; assay type: cell-based, human; settings: 24 hours
Method: After 24 hours test compounds were added to cells, Gemcitabine (a known pancreatic cancer chemotherapeutic agent) and DMSO were used as positive and negative control, respectively. After 8, 24, & 48 hours incubation with test compounds, cells were lysed in buffer containing the caspase 3/7 or 8 or 9 substrate and a stable luciferase in proprietary buffers. The lysates were transferred to white opaque plates before measuring luminescence in a Tecan Safire instrument. Parallel plates treated identically, were used to determine viable cells. All caspase activities were corrected for the number of viable cells.
Same assay was repeated using LNCaP prostate cancer cell lines (FIG. 12). […] The results are shown in FIG. 12 at 24 hours incubation when the caspase activities peaked.

[7] = test system: stimulated PBMC (actively dividing cells); experiment: IC50 on stimulated PBMC (intrinsic toxicity); assay type: cell-based; settings: Homo sapiens, stimulated PBMC
Method: (§2) The IC50 in PBMC were tested in 2 different activation status: • stimulated—actively dividing cells • resting—quiescent, non-dividing cells
(§3) IC50 of the compounds was determined on fresh cells isolated from human blood (PBMC).

[8] = test system: resting PBMC (quiescent, non-dividing cells); experiment: IC50 on resting PBMC (intrinsic toxicity); assay type: cell-based; settings: Homo sapiens, resting PBMC
Method: as §2, §3

With `CCCCC(=O)O[C@]1(C(=O)COC(=O)CC)CC[C@H]2[C@@H]3CCC4=CC(=O)CC[C@]4(C)[C@H]3CC[C@@]21C` [CB-03-10, cortexolone 17α-valerate-21-propionate] the “GR agonist activity relative to 50 nM Dex” value (Glucocorticoid Receptor) was 20%, the IC50 [1] was 9 µM and the “degradation in human plasma” value [2] was “rapidly degraded to CB-03-05”. The “plasma level of parent compound” value [3] was “undetectable in plasma even after 1 hour regardless of the administration route”, the “degradation in rat plasma” value [4] was “degraded more rapidly in rat compared to human plasma” and the “average tumor volume smaller than in the vehicle group” value (LNCaP xenograft tumor; 6 weeks after treatment was stopped, oral 100 mg/Kg) was 3.6 times. The “statistical significance of tumor growth versus vehicle” value (LNCaP xenograft tumor; FIG. 16, oral gavage) was “statistically significantly different from day 7 up to day 60”, the IC50 [5] was 18 µM and the IC50 (wild type AR (AR-LBD)) was 1.1 µM. The “induction of Initiator (8 and 9) and Effector (3/7) caspase activities” value [6] was “better than Enzalutamide”, the IC50 ([7]; Example 7, Experiment 1, read-out: IC50 (microM) on Stimulated PBMC) was 106 µM and the IC50 ([7]; Example 7, Experiment 2, read-out: IC50 (microM) on Stimulated PBMC) was 94 µM. For the same compound, the IC50 ([8]; Example 7, Experiment 1, read-out: IC50 (microM) on Resting PBMC) was 114 µM and the IC50 ([8]; Example 7, Experiment 2, read-out: IC50 (microM) on Resting PBMC) was 120 µM.

Reference: patent publication US10183030B2, “17α,21-diesters of cortexolone for use in the treatment of tumors” (COSMO TECHNOLOGIES LTD., priority 2014, dated 2019)
